Measured values from patent publication US20240342273A1, “IMMUNOTHERAPEUTIC METHOD FOR INCREASING CASHEW TOLERANCE IN A SUBJECT” (DBV Technologies, priority 2021, published 2024).
Entries after “also recorded” stand apart in the source; their conditions may differ.

Tests used:
cashew-sensitized mice = assay: Oral cashew challenge after 8 weeks of EPIT (anaphylaxis: body temperature, clinical symptoms, mMCP-1); conditions: Tregitope co-administered with cashew allergen extract by epicutaneous route, cashew-sensitized mouse model
CD62L+/FoxP3+ Tregs = assay: Phenotyping of Tregs by FACS in spleen and brachial lymph nodes; assay type: in vivo, mice; conditions: after 8 weeks of EPIT; Tregitope co-administered with cashew
Experimental: (§1) Sensitized mice were then treated by epicutaneous immunotherapy using Viaskin patches: • 10 mice were treated with viaskin containing excipient (Phosphate buffer 0.1 M+DMSO) • 10 mice were treated with viaskin containing 50 μg cashew protein (Stallergenes Greer, ref XPF84D3A2.5), • 10 mice were treated with viaskin containing 50 μg cashew protein+50 μg T1 • 10 mice were treated with viaskin containing 50 μg cashew protein+50 μg T2 • 10 mice were treated with viaskin containing 50 μg cashew protein+50 μg T3 • 10 mice were treated with viaskin containing 50 μg cashew protein+50 μg T1+50 μg T2+50 μg T3 • 10 mice were treated with viaskin containing 50 μg T1+50 μg T2+50 μg T3 m Tregitopes T1, T2 and T3 correspond to the homologs of human Tregitopes of SEQ ID NO: 1, SEQ ID NO:2 and SEQ ID NO:3, respectively. The N-terminus of the tested peptides was acetylated (CH3(C═O)—) while the C-terminus was amidated (—NH2) to prevent degradation by protease. […]
(§2) Anaphylactic reactions were characterized by a drop in body temperature and the occurrence of clinical symptoms. […] Cashew-specific IgE, IgG1 and IgG2a were measured by in house ELISA. […]

[1] = system: re-stimulated splenocytes; assay: In vitro culture of spleen cells with or without cashew stimulation (proliferation, cytokine production); assay type: cell-based, mice; conditions: splenocytes after 8 weeks of EPIT
Experimental: as §1, §2

T2: mTregitope from IgG1 (CH), EEQFNSTFRSVSELPIMHQ, homolog of human Tregitope SEQ ID NO: 2 (Ac-EEQFNSTFRSVSELPIMHQ-NH2) [Tregitope T2]
potentiation of the efficacy of EPIT for providing tolerance to cashew (cashew-sensitized mice): clearly potentiate; also recorded: particularly marked | numbers of CD62L+/FoxP3+ Tregs in skin-draining lymph nodes (FIG. 2B) (CD62L+/FoxP3+ Tregs): increase | numbers of CD62L+/FoxP3+ Tregs in spleens (FIG. 2A) (CD62L+/FoxP3+ Tregs): increase | Th2 cytokines (IL-4) in re-stimulated splenocytes (FIG. 2D) [1]: down-modulation | cashew specific T-cell proliferation (FIG. 2C) [1]: reduced
